In patent US7355055B2, “Compounds for treatment of lipase-mediated diseases” (Reliance Life Sciences Pvt. Ltd., priority 2005, dated 2008):
pIC50: −log10 of the molar value. Structures can show the parent of a compound that is named as a salt.

Legend:
Pancreatic Lipase = target: T1, Pancreatic Lipase (Sus scrofa, UniProt P00591); test: Pancreatic lipase inhibition assay (p-nitro phenol palmitate substrate, 96-well); format: biochemical; details: for inhibition at 100 µM / inhibition at 200 µM: pancreatic lipase, 37° C., OD 405 nm; for inhibition at 100 µM: compound 100 μM; for inhibition at 200 µM: compound 200 μM; for pIC50: dose range 6.25 μM-200 μM, interpolated by linear regression
T1 construct: purchased Sigma L-3126
T1 sequence (P00591 1-450): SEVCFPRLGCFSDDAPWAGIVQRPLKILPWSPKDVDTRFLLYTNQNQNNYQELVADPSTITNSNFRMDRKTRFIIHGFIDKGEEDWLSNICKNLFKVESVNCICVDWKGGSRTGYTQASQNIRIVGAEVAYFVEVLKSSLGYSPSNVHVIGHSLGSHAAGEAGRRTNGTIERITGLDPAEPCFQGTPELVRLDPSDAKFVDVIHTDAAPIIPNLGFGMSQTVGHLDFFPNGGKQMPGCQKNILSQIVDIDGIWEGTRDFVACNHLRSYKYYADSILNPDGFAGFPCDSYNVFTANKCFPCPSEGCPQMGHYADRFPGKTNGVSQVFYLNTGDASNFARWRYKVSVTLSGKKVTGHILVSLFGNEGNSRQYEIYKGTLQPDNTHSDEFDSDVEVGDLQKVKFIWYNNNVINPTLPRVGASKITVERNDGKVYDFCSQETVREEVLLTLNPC
Protocol: (§1) Preparation of test samples: Structures #2-#19 were dissolved in 1 mL DMSO to obtain a 10 mM stock solution, and were vortexed to dissolution and stored at 4° C. The various concentration of working samples were prepared in 0.2 M phosphate buffer, pH-8.0. This sample was used as test sample for all further assays.
Lipase assay: Lipase assay was performed by method described by Winkler and Stuckmann, 1979, with modification. (Winkler, U. K. & Stuckmann, M. Glycogen, hyaluronate, and some other polysaccharides greatly enhance the formation of exolipase by Serratia marcescens. J. Bacteriol. 138: 663-670 (1979)) Assay was designed, using a 96-well format. The substrate used in this assay was p-nitro phenol palmitate (Sigma, Cat No-N-2752). 4.5 mg of p-nitro phenol palmitate was dissolved in 200 μl of N,N-dimethyl formamide (Sigma, Cat No, D-4551) and volume made up to 10 ml with 0.1 M pH 8.0 phosphate buffer. Pancreatic Lipase (Sigma, Cat No. L-3126) sample was prepared by dissolving the enzyme in 0.1M phosphate buffer at a concentration of 5 mg/ml. The reaction mixture consisted of 150 μl substrate solution; 40 μl phosphate buffer (pH 8.0, 0.2 M) and 10 μl lipase solution. The reaction mixture was incubated at 37° C. and optical density was measured at 405 nm after incubation. Enzyme activity was presented in the form of international unit (IU).
Lipase activity: One enzyme unit of lipase is defined as that quantity releasing 1 nm of free phenol from the substrate (p-nitro phenol palmitate) per min per ml under the standard assay condition (Winkler and Stuckmann, 1979; Yadav R P, Saxena R K, Gupta R. Davidson W S., Purification and characterization of a region-specific lipase from Aspergillus terreus. Biotechnol. Appl. Biochem. (1998) 28, (243-249)). It is derived from standard graph of p-nitro phenol (Sigma, 104-8).
(§2) Lipase inhibition assay: Enzyme inhibition assay was performed in a dose dependent manner. The concentration of the synthetic analogs checked were 100 μM & 200 μM. The assay was similar to assay described above except 40 μl of test sample was used instead of phosphate buffer in control. Optical density was measured at 0 hr and following incubation at 37° C.
Enzyme Inhibition: Enzyme inhibition was presented in the term of relative activity and percentage inhibition simply on the basis of change in international unit (IU).
as §1, with “Synthetic analogues” for “Structures #2-#19”, “ml” for “mL”, “solution. The samples” for “solution, and”, “O.2” for “0.2”
as §2, with “6.25 μM-200” for “100 μM & 200”, “C. The enzyme activity was measured in terms of international unit (IU).” for “C.”
Lipase activity: One enzyme unit of lipase is defined as that quantity releasing 1 nm of free phenol from the substrate (p-nitro phenol palmitate)/min per ml under standard assay conditions. It is derived from standard graph of p-nitro phenol (Sigma, 104-8)
Percent Inhibition: Enzyme inhibition was presented in the term of % inhibition simply on the basis of change in international unit (IU).
The value of IC50 was derived from linear regression. The value derived is based on interpolated data.

What does the source list for `CCCCCCCCCCCC1=C(O)C(=O)C=C(O)C1=O` [Structure #20, 2,5-Dihydroxy-3-undecyl-p-benzoquinone, reference compound]?
inhibition at 100 µM (Pancreatic Lipase): 67.9%; inhibition at 200 µM (Pancreatic Lipase): 69.5%

With `CCCCCCCCCCCC1=C(OC(=O)c2ccccc2I)C(=O)C=C(OC(=O)c2ccccc2I)C1=O` [Structure #19, 2,5-bis-(2-iodophenylcarbonyloxy)-3-undecyl-1,4-benzoquinone] as the compound, how does the pIC50 (Pancreatic Lipase) read?
The pIC50 was 3.89.

And the inhibition at 100 µM (Pancreatic Lipase)?
Its inhibition at 100 µM is 29.2%.

What about the inhibition at 200 µM (Pancreatic Lipase) of the same compound?
The inhibition at 200 µM was 100%.

Which results are given for `CCCCCCCCCCCC1=C(OC(=O)c2ccc(Br)cc2)C(=O)C=C(OC(=O)c2ccc(Br)cc2)C1=O` [Structure #10, 2,5-bis-(4-bromophenylcarbonyloxy)-3-undecyl-1,4-benzoquinone]?
pIC50 (Pancreatic Lipase): 4.63; inhibition at 100 µM (Pancreatic Lipase): 87.5%; inhibition at 200 µM (Pancreatic Lipase): 97%

What does the source list for `CCCCCCCCCCCC1=C(OC(=O)c2cccc(C)c2)C(=O)C=C(OC(=O)c2cccc(C)c2)C1=O` [Structure #13, 2,5-bis-(3-methylphenylcarbonyloxy)-3-undecyl-1,4-benzoquinone]?
pIC50 (Pancreatic Lipase): 4.35; inhibition at 100 µM (Pancreatic Lipase): 100%; inhibition at 200 µM (Pancreatic Lipase): 100%

With `CCCCCCCCCCCC1=C(OC(=O)c2ccccc2Cl)C(=O)C=C(OC(=O)c2ccccc2Cl)C1=O` (as salt: Na) [Structure #8, 2,5-bis-(2-chlorophenylcarbonyloxy)-3-undecyl-1,4-benzoquinone] as the compound, how does the melting point read?
The melting point was 56.2 to 57.8 °C.

Which results are given for `CCCCCCCCCCCC1=C(OC(=O)c2cccc(Cl)c2)C(=O)C=C(OC(=O)c2cccc(Cl)c2)C1=O` [Structure #7, 2,5-bis-(3-chlorophenylcarbonyloxy)-3-undecyl-1,4-benzoquinone]?
pIC50 (Pancreatic Lipase): 4.78; inhibition at 100 µM (Pancreatic Lipase): 100%; inhibition at 200 µM (Pancreatic Lipase): 100%

With `CCCCCCCCCCCC1=C(OC(=O)c2cccc(OC)c2)C(=O)C=C(OC(=O)c2cccc(OC)c2)C1=O` [Structure #17, 2,5-bis-(3-methoxyphenylcarbonyloxy)-3-undecyl-1,4-benzoquinone] as the compound, how does the pIC50 (Pancreatic Lipase) read?
The pIC50 was 4.09.

What about the inhibition at 100 µM (Pancreatic Lipase) of the same compound?
The inhibition at 100 µM was 78.3%.

What about the inhibition at 200 µM (Pancreatic Lipase) of the same compound?
Its inhibition at 200 µM is 96.5%.

For `CCCCCCCCCCCC1=C(OC(=O)c2ccc(OC)cc2)C(=O)C=C(OC(=O)c2ccc(OC)cc2)C1=O` (as salt: Na) [Structure #18, 2,5-bis-(4-methoxyphenylcarbonyloxy)-3-undecyl-1,4-benzoquinone], which melting point is on record?
The melting point was 99.2 to 100.5 °C.

With `CCCCCCCCCCCC1=C(OC(=O)c2ccc(C)cc2)C(=O)C=C(OC(=O)c2ccc(C)cc2)C1=O` (as salt: Na) [Structure #12, 2,5-bis-(4-methylphenylcarbonyloxy)-3-undecyl-1,4-benzoquinone] as the compound, how does the melting point read?
The melting point was 94.8 to 96 °C.

For `CCCCCCCCCCCC1=C(OC(=O)c2ccc(Cl)cc2)C(=O)C=C(OC(=O)c2ccc(Cl)cc2)C1=O` (as salt: Na) [Structure #9, 2,5-bis-(4-chlorophenylcarbonyloxy)-3-undecyl-1,4-benzoquinone], which melting point is on record?
The melting point was 110.2 to 112 °C.

With `CCCCCCCCCCCC1=C(OC(=O)c2ccc(F)cc2)C(=O)C=C(OC(=O)c2ccc(F)cc2)C1=O` [Structure #16, 2,5-bis-(4-fluorophenylcarbonyloxy)-3-undecyl-1,4-benzoquinone] as the compound, how does the pIC50 (Pancreatic Lipase) read?
Its pIC50 is 4.14.

What about the inhibition at 100 µM (Pancreatic Lipase) of the same compound?
Its inhibition at 100 µM is 89.5%.

And the inhibition at 200 µM (Pancreatic Lipase)?
Its inhibition at 200 µM is 100%.

With `CCCCCCCCCCCC1=C(OC(=O)c2ccc(C)cc2)C(=O)C=C(OC(=O)c2ccc(C)cc2)C1=O` [Structure #12, 2,5-bis-(4-methylphenylcarbonyloxy)-3-undecyl-1,4-benzoquinone] as the compound, how does the pIC50 (Pancreatic Lipase) read?
The pIC50 was 4.38.

What about the inhibition at 100 µM (Pancreatic Lipase) of the same compound?
The inhibition at 100 µM was 88.5%.

And the inhibition at 200 µM (Pancreatic Lipase)?
Its inhibition at 200 µM is 99.1%.

With `CCCCCCCCCCCC1=C(OC(=O)c2ccccc2)C(=O)C=C(OC(=O)c2ccccc2)C1=O` (as salt: Na) [Structure #15, 2,5-bis-(phenylcarbonyloxy)-3-undecyl-1,4-benzoquinone] as the compound, how does the melting point read?
The melting point was 98.2 to 99.6 °C.

With `CCCCCCCCCCCC1=C(OC(=O)c2ccccc2[N+](=O)[O-])C(=O)C=C(OC(=O)c2ccccc2[N+](=O)[O-])C1=O` (as salt: Na) [Structure #14, 2,5-bis-(2-nitrophenylcarbonyloxy)-3-undecyl-1,4-benzoquinone] as the compound, how does the melting point read?
Its melting point is 72.2 to 73.8 °C.

With `CCCCCCCCCCCC1=C(OC(=O)c2ccccc2Br)C(=O)C=C(OC(=O)c2ccccc2Br)C1=O` [Structure #5, 2,5-bis-(2-bromophenylcarbonyloxy)-3-undecyl-1,4-benzoquinone] as the compound, how does the pIC50 (Pancreatic Lipase) read?
The pIC50 was 4.96.

And the inhibition at 100 µM (Pancreatic Lipase)?
Its inhibition at 100 µM is 100%.

And the inhibition at 200 µM (Pancreatic Lipase)?
The inhibition at 200 µM was 100%.

With `CCCCCCCCCCCC1=C(OC(=O)c2ccc(C(C)(C)C)cc2)C(=O)C=C(OC(=O)c2ccc(C(C)(C)C)cc2)C1=O` [Structure #3, 2,5-bis-(4-tert-butylphenylcarbonyloxy)-3-undecyl-1,4-benzoquinone] as the compound, how does the pIC50 (Pancreatic Lipase) read?
Its pIC50 is > 5.20.

And the inhibition at 100 µM (Pancreatic Lipase)?
Its inhibition at 100 µM is 99.5%.

What about the inhibition at 200 µM (Pancreatic Lipase) of the same compound?
Its inhibition at 200 µM is 99.2%.

With `CCCCCCCCCCCC1=C(OC(=O)c2ccccc2Cl)C(=O)C=C(OC(=O)c2ccccc2Cl)C1=O` [Structure #8, 2,5-bis-(2-chlorophenylcarbonyloxy)-3-undecyl-1,4-benzoquinone] as the compound, how does the pIC50 (Pancreatic Lipase) read?
The pIC50 was 4.69.

And the inhibition at 100 µM (Pancreatic Lipase)?
The inhibition at 100 µM was 100%.

And the inhibition at 200 µM (Pancreatic Lipase)?
Its inhibition at 200 µM is 100%.

With `CCCCCCCCCCCC1=C(OC(=O)c2ccc(Cl)cc2)C(=O)C=C(OC(=O)c2ccc(Cl)cc2)C1=O` [Structure #9, 2,5-bis-(4-chlorophenylcarbonyloxy)-3-undecyl-1,4-benzoquinone] as the compound, how does the pIC50 (Pancreatic Lipase) read?
The pIC50 was 4.64.

And the inhibition at 100 µM (Pancreatic Lipase)?
The inhibition at 100 µM was 98.4%.

What about the inhibition at 200 µM (Pancreatic Lipase) of the same compound?
The inhibition at 200 µM was 100%.

With `CCCCCCCCCCCC1=C(OC(=O)c2cccc(Br)c2)C(=O)C=C(OC(=O)c2cccc(Br)c2)C1=O` [Structure #6, 2,5-bis-(3-bromophenylcarbonyloxy)-3-undecyl-1,4-benzoquinone] as the compound, how does the pIC50 (Pancreatic Lipase) read?
The pIC50 was 4.87.

What about the inhibition at 100 µM (Pancreatic Lipase) of the same compound?
The inhibition at 100 µM was 100%.

What about the inhibition at 200 µM (Pancreatic Lipase) of the same compound?
Its inhibition at 200 µM is 100%.

For `CCCCCCCCCCCC1=C(OC(=O)c2cccc(OC)c2)C(=O)C=C(OC(=O)c2cccc(OC)c2)C1=O` (as salt: Na) [Structure #17, 2,5-bis-(3-methoxyphenylcarbonyloxy)-3-undecyl-1,4-benzoquinone], which melting point is on record?
The melting point was 77.1 to 78.6 °C.

Which results are given for `CCCCCCCCCCCC1=C(OC(=O)c2ccccc2[N+](=O)[O-])C(=O)C=C(OC(=O)c2ccccc2[N+](=O)[O-])C1=O` [Structure #14, 2,5-bis-(2-nitrophenylcarbonyloxy)-3-undecyl-1,4-benzoquinone]?
pIC50 (Pancreatic Lipase): 4.34; inhibition at 100 µM (Pancreatic Lipase): 65.9%; inhibition at 200 µM (Pancreatic Lipase): 61.3%

For `CCCCCCCCCCCC1=C(OC(=O)c2cccc(Cl)c2)C(=O)C=C(OC(=O)c2cccc(Cl)c2)C1=O` (as salt: Na) [Structure #7, 2,5-bis-(3-chlorophenylcarbonyloxy)-3-undecyl-1,4-benzoquinone], which melting point is on record?
Its melting point is 102.8 to 104.6 °C.

With `CCCCCCCCCCCC1=C(OC(=O)c2ccc(OC)cc2)C(=O)C=C(OC(=O)c2ccc(OC)cc2)C1=O` [Structure #18, 2,5-bis-(4-methoxyphenylcarbonyloxy)-3-undecyl-1,4-benzoquinone] as the compound, how does the pIC50 (Pancreatic Lipase) read?
Its pIC50 is 4.03.

What about the inhibition at 100 µM (Pancreatic Lipase) of the same compound?
Its inhibition at 100 µM is 55.6%.

And the inhibition at 200 µM (Pancreatic Lipase)?
The inhibition at 200 µM was 94.1%.

With `CCCCCCCCCCCC1=C(OC(=O)c2ccccc2)C(=O)C=C(OC(=O)c2ccccc2)C1=O` [Structure #15, 2,5-bis-(phenylcarbonyloxy)-3-undecyl-1,4-benzoquinone] as the compound, how does the pIC50 (Pancreatic Lipase) read?
The pIC50 was 4.26.

And the inhibition at 100 µM (Pancreatic Lipase)?
The inhibition at 100 µM was 100%.

And the inhibition at 200 µM (Pancreatic Lipase)?
The inhibition at 200 µM was 100%.
